According to PMC4457452 (2013):

Experiments:
[1] = system: Tel22 (DNA, G4) AGGGTTAGGGTTAGGGTTAGGG; assay: SPR steady state, two-site fit; details: 50 mM KCl; 10 mM HEPES, 3 mM EDTA, pH 7.3; site 1 of 2
[2] = system: Tel22 (DNA, G4) AGGGTTAGGGTTAGGGTTAGGG; assay: UV thermal melting, 295 nm; details: 50 mM KCl, 10 mM TRIS, 3 mM EDTA, pH 7.3
[3] = system: cMYC19 (DNA, G4) AGGGTGGGGAGGGTGGGGA; assay: SPR steady state, two-site fit; details: 50 mM KCl; 10 mM HEPES, 3 mM EDTA, pH 7.3; site 1 of 2
[4] = system: AATT hairpin duplex (DNA, hairpin) CGAATTCGTTTTCGAATTCG; assay: SPR steady state; details: 50 mM KCl, 10 mM HEPES, 3 mM EDTA, pH 7.3
[5] = system: AATT hairpin duplex (DNA, hairpin) CGAATTCGTTTTCGAATTCG; assay: UV thermal melting, 260 nm; details: 50 mM KCl, 10 mM TRIS, 3 mM EDTA, pH 7.3
[6] = system: MYC22 (DNA, G4) TGAGGGTGGGGAGGGTGGGGAA; assay: 1H NMR imino proton titration; details: 20 mM potassium phosphate; pH 6.02, 35 °C, 100 µM; 3'-end tetrad first, then 5'-end tetrad
[7] = system: AATT hairpin duplex (DNA, hairpin) CGAATTCGTTTTCGAATTCG; assay: SPR; details: 50 mM KCl; 10 mM HEPES, 3 mM EDTA, pH 7.3; ligand range 10 nM–10 µM
[8] = system: Tel22 (DNA, G4) AGGGTTAGGGTTAGGGTTAGGG; assay: SPR; details: 50 mM KCl; 10 mM HEPES, 3 mM EDTA, pH 7.3; ligand range 10 nM–10 µM
[9] = system: cMYC19 (DNA, G4) AGGGTGGGGAGGGTGGGGA; assay: SPR; details: 50 mM KCl; 10 mM HEPES, 3 mM EDTA, pH 7.3; ligand range 10 nM–10 µM

Compound | K1 [1] | ∆Tm ([2]; drug:DNA 6:1) | K1 [3] | K1 [4] | ∆Tm ([5]; drug:DNA 6:1) | further results
CC1(C)C(/C=C/C=C2/N(CCC[N+](C)(C)C)c3ccc(S(=O)(=O)O)cc3C2(C)C)=[N+](CCC[N+](C)(C)C)c2ccc(S(=O)(=O)O)cc21 | 820000 M⁻¹ | 1 °C | 570000 M⁻¹ | < 10^5 M^−1 | – | –
CC1(C)C(/C=C/C=C2/N(CCC[N+](C)(C)C)c3ccc(Cl)cc3C2(C)C)=[N+](CCC[N+](C)(C)C)c2ccc(Cl)cc21 | 2.7e+06 M⁻¹ | 19 °C | 8.4e+06 M⁻¹ | < 10^5 M^−1 | – | –
CC1(C)C(/C=C/C=C2/N(CCC[N+](C)(C)C)c3ccc(C(=O)O)cc3C2(C)C)=[N+](CCC[N+](C)(C)C)c2ccc(C(=O)O)cc21 | 830000 M⁻¹ | – | 5e+06 M⁻¹ | < 10^5 M^−1 | 3 °C | –
CC1(C)C(/C=C/C=C2/N(CCC[N+](C)(C)C)c3ccc(F)cc3C2(C)C)=[N+](CCC[N+](C)(C)C)c2ccc(F)cc21 | 5.9e+06 M⁻¹ | – | 6.3e+06 M⁻¹ | < 10^5 M^−1 | – | –
CC1(C)C(/C=C/C=C2/N(CCCc3ccccc3)c3ccccc3C2(C)C)=[N+](CCCc2ccccc2)c2ccccc21 | 130000 M⁻¹ | 11 °C | 1.2e+06 M⁻¹ | < 10^5 M^−1 | – | –

Further lines, with some results ahead:

K1 [1] | ∆Tm ([2]; drug:DNA 6:1) | K1 [3] | K1 [4] | ∆Tm ([5]; drug:DNA 6:1) | Compound | further results
390000 M⁻¹ | 14 °C | 3.8e+06 M⁻¹ | – | 2 °C | CC1(C)C(/C=C/C=C2/N(CCC[N+](C)(C)C)c3ccccc3C2(C)C)=[N+](CCC[N+](C)(C)C)c2ccccc21 | binding [6]: yes; K1 ([4]; up to 10 µM): < 10^5 M^−1
2.1e+06 M⁻¹ | 21 °C | 7.8e+06 M⁻¹ | < 10^5 M^−1 | 3 °C | CC1(C)C(/C=C/C=C2/N(CCC[N+](C)(C)C)c3ccc(I)cc3C2(C)C)=[N+](CCC[N+](C)(C)C)c2ccc(I)cc21 | –
5.5e+06 M⁻¹ | – | 1.2e+07 M⁻¹ | – | – | CC1(C)C(/C=C/C=C2/N(CCC[N+](C)(C)C)c3ccc(Br)cc3C2(C)C)=[N+](CCC[N+](C)(C)C)c2ccc(Br)cc21 | ∆Tm ([2]; drug:DNA 6:1, DNA 3 µM): 24 °C; binding [6]: yes; ∆Tm ([5]; drug:DNA 6:1, DNA 3 µM): 0 °C; K1 ([4]; up to 1 µM): < 10^5 M^−1
– | 0 °C | – | – | – | CCCCN1/C(=C/C=C/C2=[N+](CCCC)c3ccccc3C2(C)C)C(C)(C)c2ccccc21 | binding [7]: no; binding [8]: no; binding [9]: no
